Reference: patent US20220185793A1, “COMPOUNDS FOR THE TREATMENT OF ONCOVIRUS INDUCED CANCER AND METHODS OF USE THEREOF” (Cellestia Biotech AG, priority 2019, published 2022)

How the values were obtained:
[1] = test system: BMI1 (EBV target gene); experiment: EBV target gene downregulation (qPCR) in HG-3 cells: BMI1; format: cell-based, human; settings: 48 hours; for potency in downregulating EBV pathway (BMI1) compared with 6-(4-tert-butylphenoxy)pyridin-3-amine (in words): 10 μM, qRT-PCR, FIG. 4; for inhibition at 10 µM: Homo sapiens, mRNA by qPCR, Table 5
Protocol: EBV positive human B HG-3 cells were treated with 10 μM of the mentioned compounds for 48 hours. Following treatment, total RNA was extracted and mRNA expression analysed by qRT-PCR.
(§1) One million human EBV positive lymphoma cell lines HG3 and LCL070903 (Rosén et al., 2012) were cultured in RPMI1640 media supplemented with 10% FCS. For RNA expression analysis cells were treated with compounds at 10 μM concentration and for proliferation assay cells were treated at a concentration range of 0.01-100 μM. Following treatment cells were harvested and washed with 1× PBS. Total RNA was extracted as described below.
(§2) Total RNA was extracted from cells using TRIzol® extraction kit (Invitrogen). Briefly, 1×10^6 cells were washed with ice-cold 1× PBS and lysed in 1 ml of TRIzol® solution for 5 minutes at room temperature to dissociate nucleoprotein complexes. Lysed cells were then treated with 200 μl of chloroform and shaked vigorously for 15-30 seconds and incubated at room temperature for 2-3 minutes. The samples were centrifuged at 14000 rpm using Eppendorf table top centrifuge for 10 minutes at 4° C. Following centrifugation, upper aqueous phase was transferred to new eppendorf tubes. To precipitate total RNA 500 μl of […] was added to the separated aqueous phase and incubated at room temperature for 10 minutes. A RNA pellet was obtained by centrifuging the samples at 4° C. for 10 minutes. RNA pellet obtained was washed with 1 ml ice cold 75% ethanol and spun down at 14000 rpm at 4° C. RNA pellet was dried off of excess of ethanol and resuspended in 40 IA DPEC water.
(§3) Total RNA extracted from the cell was used to synthesize cDNA by reverse transcription reaction. Reverse transcription was performed according to one of the two following protocols.
(§4) In first protocol, SuperScript™ RT (Invitrogen) was used for reverse transcription reaction. RNA concentration was measured using NanoDrop®ND-1000 spectrophotometer (Witec AG) and 500 ng of total RNA was mixed with a 10 mM mix of dNTPs and 100 ng of random primers. The reaction mix was incubated at 65° C. for 5 minutes and quickly incubated on ice for 1 minute. Following incubation on ice, 5× first strand buffer and 0.1M DTT were added and mix was incubated for 2 minutes at 25° C. To start the reverse transcription reaction, 200U of SuperScrip™ II RT was added to the reaction mix and incubated at 42° C. for 50 minutes. The reaction was stopped by incubating the reaction mix at 75° C. for 15 minutes.
(§5) In second protocol, reverse transcription was performed using PrimeScript RT Master Mix (Takara). RNA concentration was measured using NanoDrop®ND-1000 spectrophotometer (Witec AG) and 1 μg of total RNA was mixed with 4 μL 5X PrimeScript RT Master Mix in a total reaction volume of 20 μL. The reaction mix was incubated at 37° C. for 15 minutes followed by heat inactivation at 85° C. for 5 seconds.
(§6) QRT-PCR was carried out using 7900 HT Fast Real-Time PCR system (Applied Biosystems) or QuantStudio 3 system (ThermoFisher). Briefly, 12.5 ng of template cDNA was used with a primer concentration of 0.5 μM each and lx SYBR Green dye in a final volume of 10 μL in a 96 well or 384 well plate format.
(§7) Upon infection of human cells, EBV is known to induce cancerous transformation of cells via upregulation of host as well as viral genes (e.g LMP1, EBNA2, BATF1, BMI1 and CD21). To determine the ability of compounds to downregulate EBV driven gene expression, HG-3 and LCL070903 cells were treated with selected compounds and percentage inhibition of EBV target genes was determined by quantitative PCR. As shown in Table 5 and Table 6, compounds down regulate EBV target genes such as BMI1 in HG-3 and LCL070903 cells, respectively (FIGS. 3 and 4).

[2] = test system: CD21; experiment: EBV target gene downregulation (qPCR) in HG-3 cells: CD21; format: cell-based; settings: Homo sapiens, mRNA by qPCR
Protocol: as §1
(§8) Total RNA was extracted from cells using TRIzol® extraction kit (Invitrogen). Briefly, 1×10^6 cells were washed with ice-cold 1× PBS and lysed in 1 ml of TRIzol® solution for 5 minutes at room temperature to dissociate nucleoprotein complexes. Lysed cells were then treated with 200 μl of chloroform and shaked vigorously for 15-30 seconds and incubated at room temperature for 2-3 minutes. […]
(§9) In first protocol, SuperScript™ RT (Invitrogen) was used for reverse transcription reaction. RNA concentration was measured using NanoDrop®ND-1000 spectrophotometer (Witec AG) and 500 ng of total RNA was mixed with a 10 mM mix of dNTPs and 100 ng of random primers. […]
(§10) In second protocol, reverse transcription was performed using PrimeScript RT Master Mix (Takara). RNA concentration was measured using NanoDrop®ND-1000 spectrophotometer (Witec AG) and 1 μg of total RNA was mixed with 4 μL 5X PrimeScript RT Master Mix in a total reaction volume of 20 μL. […]

[3] = test system: BMI1 (EBV target gene); experiment: EBV target gene downregulation (qPCR) in LCL070903 cells: BMI1; format: cell-based, human; settings: 48 hours; for potency in downregulating EBV pathway (BMI1) compared with 6-(4-tert-butylphenoxy)pyridin-3-amine (in words): 10 μM, qRT-PCR, FIG. 3; for inhibition at 10 µM: Homo sapiens, mRNA by qPCR, Table 6
Protocol: EBV positive human B LCL070903 cells were treated with 10 μM of the mentioned compounds for 48 hours. Following treatment, total RNA was extracted and mRNA expression analysed by qRT-PCR.
as §1, §2, §3, §4, §5, §6, §7

[4] = test system: LMP1; experiment: EBV target gene downregulation (qPCR) in LCL070903 cells: LMP1; format: cell-based; settings: Homo sapiens, mRNA by qPCR, Table 6
Protocol: as §1, §8, §9, §10

[5] = test system: EBNA2; experiment: EBV target gene downregulation (qPCR) in HG-3 cells: EBNA2; format: cell-based; settings: Homo sapiens, mRNA by qPCR, Table 5
Protocol: as §1, §2, §3, §4, §5, §6
(§11) To determine the ability of compounds to downregulate EBV driven gene expression, HG-3 cells were treated with selected compounds and percentage inhibition of EBV target genes was determined by quantitative PCR. […] To further determine the anti-oncoviral specificity of compounds, these compounds were tested for their ability to downregulate a NOTCH target gene HES1 in a NOTCH1 positive (EBV negative) human leukemic cell line RPMI8402.
as §7

[6] = test system: EBV positive human B HG-3 cells; experiment: PrestoBlue proliferation assay in HG-3 cells; format: cell-based; settings: 72 hours; for anti-proliferative effect on HG-3 cells (in words): PrestoBlue, FIG. 2 and Table 4; for IC50: Homo sapiens, concentration range 0.03-100 μM, PrestoBlue assay, read-out: Anti-proliferative IC50 values (μM) in HG-3 cells
Protocol: (§12) One million human EBV positive lymphoma cell lines HG3 and LCL070903 (Rosén et al., 2012) were cultured in RPMI1640 media supplemented with 10% FCS. […] Following treatment cells were harvested and washed with 1× PBS. Total RNA was extracted as described below.
(§13) Alamarblue® and PrestoBlue proliferation assays were performed to determine the growth kinetics of EBV inhibitor treated cells. Alamar blue® and PrestoBlue consists of a cell permeable substrate resazurin. In metabolically active and proliferating cells, resazurin is converted to resorufin due to an intrinsic reducing power of live cells and produces a red fluorescence. Therefore production of resorufin serves as an indicator of the viability of the cell population.
(§14) Proliferation assays were performed by seeding 5000 cells/well in a 96 well plate. […] Each concentration was tested in 4 replicates. To determine the growth kinetics, 10 μl of Alamar blue® or PrestoBlue (Invitrogen) was added to each well and incubated for 4 hours. Readout was taken using Tecan F500 (Tecan) multiplate reader or Varioskan LUX (ThermoFisher) multiplate reader.
In brief, HG-3 cells were plated in a 96 well plate and treated with an increasing concentration of compounds.

[7] = test system: CD21; experiment: EBV target gene downregulation (qPCR) in LCL070903 cells: CD21; format: cell-based; settings: Homo sapiens, mRNA by qPCR, Table 6
Protocol: as §1
as §2, with “A RNA pellet was obtained by centrifuging the samples at 4° C. for 10 minutes. RNA pellet obtained was washed with 1 ml ice cold 75% ethanol and spun down at 14000 rpm at 4° C. RNA pellet was dried off of excess of ethanol and resuspended in 40 IA DPEC water.” left out
as §9, §10
Upon infection of human cells, EBV is known to induce cancerous transformation of cells via upregulation of host as well as viral genes (e.g LMP1, EBNA2, BATF1, BMI1 and CD21). To determine the ability of compounds to downregulate EBV driven gene expression, HG-3 and LCL070903 cells were treated with selected compounds and percentage inhibition of EBV target genes was determined by quantitative PCR. […]

[8] = test system: EBNA2; experiment: EBV target gene downregulation (qPCR) in LCL070903 cells: EBNA2; format: cell-based; settings: Homo sapiens, mRNA by qPCR, Table 6
Protocol: as §1, §2, §3, §4, §5, §6, §7

[9] = test system: EBV positive human lymphoma HG-3 cells; experiment: Alamar blue proliferation assay in HG-3 cells; format: cell-based; settings: 72 hours
Protocol: as §12, §13, §14
In order to determine anti-cancer activity of compounds in oncoviral driven cells, an EBV infected human Chronic Lymphocytic Leukemia cell line HG-3 was used (Rosen et al., 2012). In brief, HG-3 cells were plated in a 96 well plate and treated with an increasing concentration of compounds.

[10] = test system: BATF1; experiment: EBV target gene downregulation (qPCR) in HG-3 cells: BATF1; format: cell-based; settings: Homo sapiens, mRNA by qPCR, Table 2
Protocol: as §1, §8, §9, §10

[11] = test system: NOTCH target gene HES1; experiment: NOTCH target gene HES1 downregulation in RPMI 8402 cells; format: cell-based, human; design: Percentage inhibition of NOTCH target gene HES1: concentration or dose not given beside the values; settings: RPMI 8402 cells (NOTCH1 positive, EBV negative)
Protocol: as §2, §3, §6, §11

SMILES	potency in downregulating EBV pathway (BMI1) compared with 6-(4-tert-butylphenoxy)pyridin-3-amine (in words) [1]	inhibition at 10 µM [1] [%]	inhibition at 10 µM ([2]; Table 5) [%]	potency in downregulating EBV pathway (BMI1) compared with 6-(4-tert-butylphenoxy)pyridin-3-amine (in words) [3]	inhibition at 10 µM [3] [%]	inhibition at 10 µM [4] [%]	inhibition at 10 µM [5] [%]	anti-proliferative effect on HG-3 cells (in words) [6]	IC50 [6] [µM]	inhibition at 10 µM [7] [%]	inhibition at 10 µM [8] [%]	anti-proliferative effect on HG-3 cells (in words) ([9]; Alamar blue, FIG. 1 and Table 1)	IC50 ([9]; Homo sapiens, concentration range 0.01-10 μM, Alamar blue assay, read-out: Anti-proliferative IC50 values) [nM]	inhibition at 10 µM ([2]; Table 2) [%]	inhibition at 10 µM [10] [%]	Percentage inhibition of NOTCH target gene HES1 [11] [%]	downregulation of NOTCH target gene HES1 (in words) [11]
OC(c1ccc(NCc2cccnc2)cc1)c1ccc(-c2ccc(F)cc2)cc1 (stereo not drawn) [Example 30, (4′-Fluoro-[1,1′-biphenyl]-4-yl)(4-((pyridin-3-ylmethyl)amino)phenyl)methanol]	enhanced potency	31	10	enhanced potency	54	–	–	–	–	–	–	–	–	–	–	–	–
Cc1ccccc1-c1ccc(Oc2ccc(NCc3cccnc3)cc2)cc1C [Example 28, 4-((2,2′-Dimethyl-[1,1′-biphenyl]-4-yl)oxy)-N-(pyridin-3-ylmethy)aniline]	enhanced potency	51	–	enhanced potency	61	24	36	demonstrate anti-proliferative effect	1.5	1	43	–	–	–	–	–	–
CC(C)(C)c1ccc(Oc2ccc(NCc3cccnc3)cn2)cc1 [Example 2, 6-(4-(tert-Butyl)phenoxy)-N-(pyridin-3-ylmethyl)pyridin-3-amine]	–	–	–	–	–	–	–	–	–	–	–	demonstrate anti-proliferative effect	2200	> 90	> 90	0	do not modulate expression of this gene
c1cncc(CNc2ccc(Oc3ccc(-c4cncs4)cc3)nc2)c1 [Example 27, N-(pyridin-3-ylmethyl)-6-(4-(thiazol-5-yl)phenoxy)pyridin-3-amine]	enhanced potency	–	–	enhanced potency	66	–	–	demonstrate anti-proliferative effect	1.9	22	–	–	–	–	–	–	–
c1ccc(-c2ccc(Oc3ccc(NCc4cccnc4)cn3)cn2)cc1 [Example 21, 6-((6-Phenylpyridin-3-yl)oxy)-N-(pyridin-3-ylmethyl)pyridin-3-amine]	enhanced potency	47	–	enhanced potency	51	12	–	demonstrate anti-proliferative effect	3.8	9	50	–	–	–	–	–	–
